Columns and labels:
[1] = test system: Escherichia coli O157:H7 (ATCC 35150); test: Test for bacterial proliferation inhibitory effects (absorbance at 600 nm); type: cell-based; details: 37° C., 22 hours; FIG. 5
[2] = test system: Salmonella typhimurium (ATCC 19586); test: as above; details: 37° C., 22 hours; FIG. 5
[3] = test system: Escherichia coli O157:H7 (ATCC 35150); test: Test for apoptotic effects (viable colony count on selective media); type: cell-based; details: compared with erythorbic acid and lauric acid; FIG. 4
Protocol: (§1) Apoptotic effects of erythorbic acid, lauric acid, and erythorbyl laurate, which is a […] product of erythorbic acid and lauric acid and a material of interest in this experiment, on two kinds of Gram-negative bacteria and two kinds of Gram-positive bacteria were evaluated.
(§2) As selective media for antibiosis test, sorbitol MacConkey agar (SMAC) (available from Difco), Xylose Lysine Desoxycholate agar (XLD) (available from Difco), Oxford agar base with Bacto™ Oxford antimicrobial supplement (MOX) (available from Difco), and Baird-Parker Agar Base (BPA) (available from Difco) were used.
(§3) As bacterial strains, Escherichia coli O157:H7 (ATCC 35150), Salmonella typhimurium (ATCC 19586), Listeria monocytogenes (ATCC 19114), and Staphylococcus aureus (ATCC 27213) were prepared. Each of the bacterial strains was cultured in tryptic soy broth (Difco, Becton Dickinson, Sparks, Md., USA) for 24 hours at 37° C., centrifuged at 4000×g for 20 minutes at 4° C., and purified with buffered peptone water (BPW) (available from Difco). Each strain was prepared in the form of a bacterial suspension (10^6 CFU/ml).
(§4) For this experiment, first, 10 ml of erythorbic acid, 10 ml of lauric acid, and 10 ml of erythorbyl laurate were added to 0.1 ml of each bacterial suspension. The resulting solution was satisfactorily mixed using a vortex mixer for minutes. Thereafter, 1 ml of the resultant solution obtained by mixing each bacterial suspension and test compounds was mixed with 9 ml of sterilized peptone water. Then, the resulting mixture was diluted 1:10 using sterilized peptone water. 0.1 ml of the diluted solution was collected and plated on the selective media. The plated media were incubated at 37° C. for 24 hours, and then colonies grown in each plate were measured in log10 CFU/ml.

[4] = test system: Listeria monocytogenes (ATCC 19114); test: as above; type: cell-based
Protocol: as §1, §2, §3, §4

[5] = test system: Salmonella typhimurium (ATCC 19586); test: as above; type: cell-based; details: compared with erythorbic acid and lauric acid; FIG. 4
Protocol: as §1, §2, §3, §4

[6] = test system: Staphylococcus aureus (ATCC 27213); test: as above; type: cell-based
Protocol: as §1, §2, §3, §4

[7] = test system: Staphylococcus aureus; test: Test for bacterial proliferation inhibitory effects (absorbance at 600 nm); type: cell-based
Protocol: Meanwhile, as a result of examination of proliferation inhibition data of Staphylococcus aureus, a portion where an exponential phase of the bacteria starts was remarkably shown unlike Listeria monocytogenes. Thus, the concentration of erythorbyl laurate was further decreased and a growth curve of the bacteria was measured.

[8] = test system: human intestinal epithelial cells INT-407
[9] = test system: human intestinal epithelial cells INT-407; test: Cytotoxicity test (MTT assay, cell viability); details: FIG. 7
[10] = test system: Listeria monocytogenes; test: Test for bacterial proliferation inhibitory effects (absorbance at 600 nm); details: 37° C., 22 hours; FIG. 5

| SMILES | bacterial proliferation inhibitory effects [1] | bacterial proliferation inhibitory effects [2] | apoptotic effects [3] | apoptotic effects ([4]; FIG. 4) | viable cell count ([4]; above concentrations of 200 ppm) [CFU/ml] | apoptotic effects according to the concentration ([4]; up to 200 ppm) | apoptotic effects [5] | apoptotic effects ([6]; FIG. 4) | apoptotic effects according to the concentration ([6]; at a concentration of 200 ppm or higher) | bacterial proliferation inhibitory effects ([7]; 37° C., 22 hours, FIG. 5) | growth curve of the bacteria as the concentration decreased ([7]; decreasing concentration of erythorbyl laurate, FIG. 6) | cytotoxicity [8] | cell viability compared with erythorbic acid ([9]; 50 μM and 200 μM) | cell viability compared with ascorbyl palmitate ([9]; all the concentrations) | bacterial proliferation inhibitory effects [10] |
| --- | --- | --- | --- | --- | --- | --- | --- | --- | --- | --- | --- | --- | --- | --- | --- |
| O=C1O[C@H]([C@H](O)CO)C(O)=C1O [erythorbic acid] | insignificant bacterial proliferation inhibitory effects | insignificant bacterial proliferation inhibitory effects | – | – | – | – | – | – | – | – | – | – | – | – | – |
| CCCCCCCCCCCC(=O)O [lauric acid] | insignificant bacterial proliferation inhibitory effects | insignificant bacterial proliferation inhibitory effects | – | – | – | – | – | – | – | – | – | – | – | – | – |
| CCCCCCCCCCCC(=O)OC[C@@H](O)[C@H]1OC(=O)C(O)=C1O [erythorbyl laurate] | insignificant bacterial proliferation inhibitory effects | insignificant bacterial proliferation inhibitory effects | insignificant | excellent apoptotic effects | 0.48 | apoptotic effects were increased in proportion to increase in the concentration | insignificant | excellent apoptotic effects | continuous apoptotic effects | effective bacterial proliferation inhibitory effects | an induction phase decreased and the exponential phase was observed earlier | no cytotoxicity | cell viability similar to that when erythorbic acid was used | higher cell viability | effective bacterial proliferation inhibitory effects |
